Data taken from publication PMC9319560 (Viruses, 2022).
“Also recorded” adds a separate entry of the source. Like-named read-outs stand apart in the source and are kept apart here. No end group written: not given here.

How the values were obtained:
[1] = system: human primary keratinocytes (NHEK); experiment: Inflammatory marker mRNA expression in NHEK stimulated with poly(I:C), RT-qPCR; format: cell-based; conditions: NHEK stimulated with 0.1 µg/mL poly(I:C) alone, 3 h
[2] = system: normal human epidermal keratinocytes (NHEK); experiment: XTT cell viability assay on NHEK; format: cell-based; conditions: concentrations up to 10 µg/mL (1 to 20 µg/mL tested), 48 h incubation, compared with non-treated cells, mean of at least 3 independent experiments
[3] = system: normal human epidermal keratinocytes (NHEK); experiment: LDH release assay on NHEK; format: cell-based; conditions: concentrations up to 10 µg/mL (1 to 20 µg/mL tested), 48 h per b34/b35 (24 h per b9), compared with non-treated cells, mean of at least 3 independent experiments
West Nile virus (WNV) [4] = experiment: WNV RNA quantification by RT-qPCR in infected human primary keratinocytes; format: cell-based; conditions: NHEK, WNV MOI 0.1, 24 h; for viral load in the cell monolayers: peptide 1 or 10 µg/mL added 1 h before infection, versus untreated; for effect on WNV replication in human primary keratinocytes: peptide 1 or 10 µg/mL, viral load in monolayer and supernatant by RT-qPCR
West Nile virus (WNV) [5] = conditions: for reduction in the viral titer (factor): WNV inoculum 10^5.27 TCID50/mL pre-incubated 1 h at 37 °C (legend: 2 h), residual titer on Vero cells, versus WNV incubated alone, 5 independent experiments
[6] = system: human primary keratinocytes (NHEK); format: cell-based; conditions: 3 h, RT-qPCR; for pro-inflammatory effects of the peptide alone (mRNA of inflammatory markers): peptide alone 0.1, 1 and 10 µg/mL, 6 independent experiments (Figure S1)
[7] = system: human primary keratinocytes (NHEK) infected by WNV; experiment: Inflammatory marker mRNA expression in NHEK infected with WNV, RT-qPCR; format: cell-based; conditions: WNV MOI 0.1, 24 h, 1 or 10 µg/mL peptide, versus WNV alone, similar trend, fold changes less marked, 5 independent experiments
viperin (RSAD2) = experiment: Viperin; format: cell-based, human; conditions: NHEK, WNV MOI 0.1, 48 h, immunofluorescence, 3 independent experiments
viral envelope = conditions: previous studies; cited from earlier work
[8] = system: pro-inflammatory cytokine release; conditions: cell-specific and concentration-dependent; cell supernatant; cited from earlier work
DENV = conditions: pretreatment by 30 µg/mL of peptide; cited from earlier work
[9] = system: human immunodeficiency virus; conditions: concentration-dependent antiviral effect against human immunodeficiency virus; cited from earlier work
[10] = RT-qPCR, 5 independent experiments
[11] = 1 µg/mL peptide, versus WNV alone, p < 0.05
[12] = whatever the concentration of the peptide (1 or 10 µg/mL)

Substance | inflammatory response of NHEK [1] | keratinocyte viability (XTT) [2] | keratinocyte viability (LDH release) [3] | decrease of viral RNA in the cell supernatant (West Nile virus (WNV) [4]; 10 µg/mL peptide added 1 h before infection, RT-qPCR, versus untreated cells, 5 independent experiments, p < 0.05) [fold] | viral load in the cell monolayers (West Nile virus (WNV) [4]; [10]) | effect on WNV replication in human primary keratinocytes (West Nile virus (WNV) [4]) | reduction in the viral titer (factor) (West Nile virus (WNV) [5]; 1 µg/mL peptide) | reduction in the viral titer (factor) (West Nile virus (WNV) [5]; 10 µg/mL peptide) | reduction in the viral infectious titer (West Nile virus (WNV) [5]; WNV strain incubated with peptide, concentration not given) [log10] | pro-inflammatory effects of the peptide alone (mRNA of inflammatory markers) [6] | expression of ISGs and inflammatory markers (mRNA) during WNV infection [7] | RSAD2 protein expression (viperin (RSAD2); [11]) | RSAD2 protein expression (viperin (RSAD2); [12]) | concentration from which degradation of the viral envelope was observed (viral envelope) [µg/mL] | concentration from which decreased pro-inflammatory cytokine release was seen [8] [µg/mL] | CXCL-8 mRNA expression, peptide alone ([6]; 10 µg/mL peptide alone, p < 0.05 (Figure S1)) | DENV titer (DENV) | concentration at which the antiviral effect is significant [9]
poly(I:C) | elicited an inflammatory response | – | – | – | – | – | – | – | – | – | – | – | – | – | – | – | – | –
LL-37 | – | greater than or equal to 90% | greater than or equal to 90% | 5.5 | No significant difference | inhibits WNV replication | 14 | 95 | 2 | no significant pro-inflammatory effects | not significant | significantly increased | enhanced | ≥ 10 | ≥ 25 | – | – | –
hBD-3 (GIINTLQKYYCRVRGGRCAVLSCLPKEEQIGKCSTRGRKCCRRKK; ends and bridges not checked; cysteine pairing not given here; UniProt P81534 23-67, looked up) [type 3 human β-defensin, skin antimicrobial peptide; purchased from PeproTech] | – | greater than or equal to 90% | greater than or equal to 90% | – | No significant difference | does not seem to have any effect; also recorded: not reduced | – | – | – | no significant pro-inflammatory effects | – | significantly increased | enhanced | – | – | notable exception | did not result in a significant decrease | greater than 25 µg/mL
